Measured values as given in US9938240B2, “Fluorinated derivatives of 3-hydroxypyridin-4-ones” (Apotex Technologies Inc., priority 2009, dated 2018).

Columns and labels:
[1] = system: SH-SY5Y human neuroblastoma cells; conditions: for CC2 (cytotoxic concentration): H2O2-treated cells, viability below 80%; for CC1 (cytotoxic concentration): absence of H2O2, viability below 80%
Outline: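 SH-SY5Y cells were treated with a range of compound concentrations, with or without 50 μM H2O2, in serum-free medium for 16–22 h. Viability was measured by MTT and expressed relative to cells receiving neither H2O2 nor compound. Runs without H2O2 assessed cytotoxicity.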

[2] = Oral cassette dosing PK/BBB studies; format: in vivo, male Sprague-Dawley rats; conditions: for BBB penetration: cassette dosing BBB studies in rats, in words; for AUC brain* / Kp / AUC: oral cassette dosing, male Sprague-Dawley rats; for AUC brain* / AUC: AUC normalized to 1 mg/kg dose; for Kp / AUC: rat; for Kp: brain and plasma, read-out: AUC brain/AUC plasma; for AUC: plasma
Experimental: In-vivo pharmacokinetic (PK) and blood brain barrier (BBB) studies were conducted in male Sprague-Dawley rats using cassette dosing via oral administration. […] No. 15, pp. 652-658.

[3] = pKa determination by spectrophotometric titration; format: physicochemical; conditions: for pKa: 0.1 M NaCl solution, read-out: pKa (amine); for Logβ011 / Logβ012 / Logβ013: cumulative ligand protonation; for Logβ011 / Logβ012 / Logβ013 / pKa1(L) / pKa2(L) / pKa3(L): Example 53; for pKa1(L) / pKa2(L) / pKa3(L): ligand, spectrophotometric titration
Experimental: The pKa values of ligands can be determined by spectrophotometric titration when both the conjugated acid and base absorb in the UV-visible region. In a typical experiment, the sample solution was prepared by the following method: Apo7041 stock solution (12.74 mg) was weighed into a 10 mL volumetric flask, and 0.1 M NaCl solution was added to volume. The mixture was sonicated and voltexed to give a clear colorless solution. The concentration of Apo7041 of this stock solution is 5.1×10^−3 M.
Apo7041 sample solution: 727 μL of the above stock solution was transferred into a 50 mL volumetric flask by using a 1000 μL digital pipet, and 0.1 M NaCl was added to volume. The resulting solution was vortexed to mix to give a sample solution. The concentration of Apo7041 of this sample solution is 7.4×10^−5 M. 20 mL of the sample solution was transferred into a 35 mL beaker by using a 10 mL digital pipet. The sample solution was circulated between the beaker and the flow cell using a sipper system.
The sample solution was titrated against standard hydrochloric acid solutions at 22° C. to reach pH 1.11. After each addition of acid the solution was allowed to equilibrate until a constant pH reading was reached. The pH and the UV-Vis spectrum were recorded for each measurement. The solution was titrated until there was no obvious change in the spectra after several subsequent additions of acid. Thus, 30 measurements were recorded.
The resulting data set was then analyzed using pHAB (Peter Gans, University of Leeds). The pKa values were obtained using the model: LH+H^+⇄LH2^+, and LH2^++H^+⇄LH3^2+ (pKa3). Thus, Apo7041 has pKa2=3.51, and pKa3=1.23 as determined spectrophotometrically.
The pKa values of Apo7323 were determined by spectrophotometric titration using an Agilent 8453 UV-visible spectroscopy system (see Example 26).

[4] = Stepwise formation constants for Zn-ligand system by potentiometric titration; format: physicochemical; conditions: for pZn^2+: pH 7.4, ligand 10 μM, metal 1 μM
Experimental: In a typical experiment, the sample solution was prepared by the following method: Apo7041 (126.3 mg, 0.50 mmol) was weighed into a 50 mL volumetric flask, and about 35 mL of a mixed solvent (0.1 M NaCl aqueous:MeOH, 1:1, v:v) was added. The mixture was sonicated for 10 min to give a clear colorless solution. The zinc stock solution (atomic absorption standard, Aldrich, 6.64 mL, 0.10 mmol) was pipetted into the solution followed by addition of sodium hydroxide solution (6.000 N, 300 μL). More of the mixed solvent was added to volume and the resulting solution was vortexed to mix. The molar ratio between the total zinc and the total Apo7041 was 1/5. 40 mL of the solution was transferred into a T70 titration cell by using a 10 mL digital pipet. A 6.000 N sodium hydroxide solution (160 μL) was added, and the pH (11.95) of the solution was recorded. The solution was allowed to equilibrate at 22° C. for 5 min.
The solution was then titrated against a 6.000 N hydrochloric acid solution at 22° C. by using a Mettler Toledo T70 autotitrator, until the pH reached 1.5. The volume of acid added and the pH reading were recorded. Thus, 523 measurements were taken for this experiment.
The data set of pH vs. acid volume for Zn-Apo7041 system was analyzed using Hyperquad 2000 software (version 2.1, Peter Gans, University of Leeds). The formation constants for Zn-Apo7041 system were optimized using the model shown in the first column of the table 29D. The results are shown in the second and third column.
pM^n+ is defined as −log [M(H2O)m]^n+ at physiological conditions, i.e.: pH 7.4, a ligand concentration of 10 μM, and a metal concentration of 1 μM. To calculate pM^n+ for a MLn system, βn and pKa values are needed (βn are the formation constants for M^n++n L^−⇄MLn; pKa are the equilibrium constants for L^−+n H^+⇄LHn^(n-1)+). The pM^n+ is calculated using the HySS software (HYSS© 2000 Protonic Software).

[5] = spectrophotometric, 0.1 M NaCl, 22° C.
[6] = 0.1M aqueous NaCl/MeOH, 1/1, v/v
[7] = 0.1M aqueous NaCl/MeOH, 1/1, v/v, listed as drawing 104

Row | SMILES | CC2 (cytotoxic concentration) [1] | CC1 (cytotoxic concentration) [1] | BBB penetration [2] | AUC brain* [2] | Kp [2] | AUC [2] | pKa ([3]; amino group of the ligand) | Log β120 (Zn2+) [4, 6] | pZn^2+ [4] | Logβ011 [3] | Logβ012 [3] | Logβ013 [3] | pKa1(L) [3] | pKa2(L) [3] | pKa3(L) [3] | other results
1 | CN(C)C(c1c(O)c(=O)ccn1C)C(F)(F)F (stereo not shown) [Apo7041, 2-[1-(dimethylamino)-2,2,2-trifluoroethyl]-3-hydroxy-1-methylpyridin-4(1H)-one] | 320 µM | 160 µM | less favorable than deferiprone in BBB penetration | 450 ng·h/mL | 0.75 | 600 ng·h/mL | 3.5 | 13.2 | pZn^2+ = 6.0 | – | – | – | – | – | – | pKa (amine) ([3]; amino group of the ligand): 3.51; pKa2 [3, 5]: 3.51; pKa3 [3, 5]: 1.23; Log β111 (Zn2+) [4, 6]: 13.1; Log β121 (Zn2+) [4, 6]: 19.6; Log β111 (Zn2+) [4, 7]: Logβ111 = 13.1; Log β120 (Zn2+) [4, 7]: Logβ120 = 13.2; Log β121 (Zn2+) [4, 7]: Logβ121 = 19.6
2 | CNC(c1cn(C)c(C)c(O)c1=O)C(F)(F)F (stereo not shown) [Apo7056, 3-Hydroxy-1,2-dimethyl-5-[2,2,2-trifluoro-1-(methylamino)ethyl]pyridin-4(1H)-one] | – | – | – | 770 ng·h/mL | 0.56 | 1380 ng·h/mL | – | – | – | 9.8 | 14.7 | 15.1 | 9.8 | 4.9 | 0.4 | –
3 | CN(C)Cc1c(O)c(=O)ccn1CC(F)(F)F [Apo7067, 2-[(dimethylamino)methyl]-3-hydroxy-1-(2,2,2-trifluoroethyl)pyridin-4(1H)-one] | >640 µM | 160 µM | readily penetrates the BBB | 740 ng·h/mL | 1.5 | 500 ng·h/mL | 6.1 | – | – | 9.6 | 15.7 | 16.5 | 9.6 | 6.1 | 0.8 | –
4 | O=c1ccn(CC(F)(F)F)c(CN2CCOCC2)c1O [Apo7323, 3-hydroxy-2-(morpholinomethyl)-1-(2,2,2-trifluoroethyl)pyridin-4(1H)-one] | 320 µM | 160 µM | – | – | – | – | 4.2 | – | – | 9.2 | 13.4 | 14.2 | 9.2 | 4.2 | 0.8 | –
5 | Cc1c(O)c(=O)c(C(N2CCOCC2)C(F)(F)F)cn1C (stereo not shown) [Apo7435, 3-hydroxy-1,2-dimethyl-5-(2,2,2-trifluoro-1-morpholinoethyl)pyridin-4(1H)-one] | 320 µM | 80 µM | – | – | – | – | 2.5 | – | – | 9.8 | 12.3 | 12.3 | 9.8 | 2.5 | 0.0 | –
6 | Cc1c(O)c(=O)ccn1C [Deferiprone, 3-hydroxy-1,2-dimethylpyridin-4(1H)-one, reference compound] | – | – | – | – | – | – | – | 15.0 | pZn^2+ = 6.3 | – | – | – | – | – | – | Logβ1 (Zn2+) [4, 6]: Logβ1 = 8.1; Logβ2 (Zn2+) [4, 6]: Logβ2 = 15.0
